Results as given in patent US5808139A (Ligand Pharmaceuticals Incorporated, priority 1994, dated 1998).

Key:
[1] = test system: human progesterone receptor altered at the Tau-1 location; experiment: Co-transfection assay in CV-1 cells, progesterone receptor altered at Tau-1, antagonist activity; assay type: cell-based; conditions: for Efficacy (% maximal response relative to RU-486), CV-1 cells: antagonist activity; for IC50: concentration required to reduce the maximal response by 50%, read-out: Potency (IC50), CV-1 cells
Source text: This assay is described in further detail in U.S. Pat. Nos. 4,981,784 and 5,071,773, which are incorporated herein by reference. The co-transfection assay provides a method for identifying functional ligands (either agonists which mimic, or antagonists which inhibit, the effect of hormones) for ligand-responsive receptor proteins.
The co-transfection assay provides a mechanism to evaluate ability of a compound to function as an agonist or antagonist of the activity modulated by an intracellular receptor. The co-transfection assay mimics an in vivo system in the laboratory. In the co-transfection assay, a cloned gene for an intracellular receptor is introduced by transfection (a procedure to induce cells to take up foreign genes) into a background cell substantially devoid of endogenous intracellular receptors. This introduced gene directs the recipient cells to make the intracellular receptor protein. A second gene is also introduced (co-transfected) into the same cells in conjunction with the intracellular receptor gene. This second gene functions as a reporter for the transcription-modulating activity of the target intracellular receptor. The reporter acts as a surrogate for the products normally expressed by a gene under control of the target receptor and its natural hormone.
A preferred reporter gene is one which expresses the firefly enzyme luciferase. The co-transfection assay can detect small molecule agonists or antagonists of target intracellular receptors. Exposing the cells to an agonist ligand increases reporter activity in the transfected cells that can be conveniently measured, reflecting ligand-dependent, intracellular receptor-mediated increases in reporter transcription. To detect antagonists, the co-transfection assay is carried out in the presence of a constant concentration of an agonist known to induce a defined reporter signal. Increasing concentrations of a test antagonist will decrease the reporter signal. The co-transfection assay is therefore useful to detect both agonists and antagonists of specific intracellular receptors. It determines not only whether a compound interacts with a particular intracellular receptor, but also whether this interaction mimics (agonizes) or blocks (antagonizes) the effects of the natural regulatory molecules on target gene expression.
Co-transfected cells are exposed to a medium to which is added the potential ligand that is being evaluated. If the candidate ligand diffuses into the cell and binds to the receptor and the resulting complex functions as an agonist, it binds to the co-transfected reporter gene and initiates transcription. When that gene is one that expresses, for example, luciferase, luciferase is produced which catalyzes a light-emitting reaction with its substrate luciferin. Thus, after cell lysis and the introduction of luciferin, the amount of light produced relative to the concentration of candidate ligand used in the assay provides a measure of the potency and efficacy of the compound tested. Antagonist activity is evaluated by adding the candidate ligand and a known agonist to the co-transfected cells.
The receptor cDNA was introduced in a mammalian expression vector under the control of the Rous Sarcoma virus LTR. […] A reporter vector was also transfected, containing a firefly luciferase gene under the control of the hormone-responsive promoter. […] The level of luciferase activity was then measured in cell extracts. Light emission is directly proportional to the effectiveness of the hormone-receptor complex in activating gene expression.
A total of three replicates per concentration point were tested for each compound, and the EC50 was calculated for each positive response. Both agonist and antagonist activity for each test compound was determined in parallel. […]

[2] = test system: progesterone receptor (T47D cells); experiment: Antagonist assay in T47D (human breast cancer) cells (Tables 1 and 2); assay type: cell-based; conditions: for Efficacy (% maximal response relative to RU-486), T47D cells: antagonist activity; for IC50: concentration required to reduce the maximal response by 50%, read-out: Potency (IC50), T47D cells
Source text: The functional activities of the cyclocymopol analogues in the human breast cell line, T47D, were also investigated. T47D cells have proven to be a particularly useful model to investigate the molecular actions of sex steroids because they contain endogenous functional receptors for, and respond to, progestins, and their respective antagonists. […] In T47D cells, progestins induce de novo synthesis of a plasma-associated alkaline phosphatase, which has been reported to be similar, if not identical, to the alkaline phosphatase present in the normal breast and human milk. These tests were conducted according to the following illustrative example.
The assay was also run using T47D (human breast cancer) cells.

[3] = molecular target: T1, human progesterone receptor (Homo sapiens, UniProt P06401); experiment: Progesterone receptor binding (displacement of 3H-progesterone, whole cell extract of transfected CV-1 cells); parameters: expressed in transfected cells; host or cells: CV-1 cells (calcium phosphate transfection), whole cell extract
T1 sequence (P06401 1-933): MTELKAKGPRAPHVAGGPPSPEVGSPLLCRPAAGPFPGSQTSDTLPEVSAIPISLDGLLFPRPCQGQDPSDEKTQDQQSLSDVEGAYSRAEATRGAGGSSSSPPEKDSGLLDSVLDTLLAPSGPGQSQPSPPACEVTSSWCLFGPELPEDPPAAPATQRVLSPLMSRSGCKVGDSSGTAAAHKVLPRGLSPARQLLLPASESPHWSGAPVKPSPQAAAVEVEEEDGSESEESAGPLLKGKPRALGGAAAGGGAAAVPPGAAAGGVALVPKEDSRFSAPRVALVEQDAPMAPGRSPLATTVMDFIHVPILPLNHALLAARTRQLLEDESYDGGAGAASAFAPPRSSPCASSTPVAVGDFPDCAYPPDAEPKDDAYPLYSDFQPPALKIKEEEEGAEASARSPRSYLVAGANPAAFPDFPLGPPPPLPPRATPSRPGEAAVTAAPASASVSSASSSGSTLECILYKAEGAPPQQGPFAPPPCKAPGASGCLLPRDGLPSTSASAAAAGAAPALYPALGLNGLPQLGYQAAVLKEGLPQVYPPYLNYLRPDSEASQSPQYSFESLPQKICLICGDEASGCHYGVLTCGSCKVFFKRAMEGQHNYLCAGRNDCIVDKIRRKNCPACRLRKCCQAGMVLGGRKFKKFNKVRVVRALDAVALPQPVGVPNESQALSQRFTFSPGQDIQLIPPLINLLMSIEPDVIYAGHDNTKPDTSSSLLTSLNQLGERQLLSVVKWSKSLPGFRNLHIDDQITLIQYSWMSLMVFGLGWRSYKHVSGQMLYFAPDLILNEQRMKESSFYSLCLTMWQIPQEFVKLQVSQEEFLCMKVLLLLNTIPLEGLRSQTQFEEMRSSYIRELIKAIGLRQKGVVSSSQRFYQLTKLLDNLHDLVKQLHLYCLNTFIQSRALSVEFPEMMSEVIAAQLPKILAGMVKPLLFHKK
Experimental: These tests were conducted according to the following illustrative example.
CO2 for 40 hours prior to harvest.
After incubation, cells were harvested and washed in phosphate buffered saline. Whole cell receptor extract was prepared by homogenizing the harvested cells in Tris-HCl buffer, pH=7.4, containing 30% glycerol, 1 mM EDTA, 12 mM monothioglycerol, 1 mM PMSF, and 0.5M potassium chloride. The homogenate was incubated at 4° C. for 60 min with resuspension every 10 min. The suspension was centrifuged (105,000×g, 60 min) and the supernatant was collected and flash frozen in liquid nitrogen and stored frozen at -70° C.
To a […] final volume incubation mixture, […] of 7.5% (w/v) dextran-coated charcoal suspension in gelatin phosphate buffer was added. The mixture was vortexed and incubated at 4° C. for 10 min and then centrifuged at 3000 rpm for 10 min. The amount of bound tritiated hormone was determined by liquid scintillation spectrophotometry of an aliquot of the supernatant. […]

SMILES	IC50 [1] [µM]	IC50 [2] [µM]	Kd [3] [µM]	Efficacy (% maximal response relative to RU-486), CV-1 cells [1] [%]	Efficacy (% maximal response relative to RU-486), T47D cells [2] [%]
C=C1CCCC(C)(C)C1Cc1cc(OC)c(Br)cc1OC(C)=O (racemic) [A, 1-Methylidene-2-(2'-acetoxy-4'-bromo-5'-methoxyphenyl)methyl-3,3-dimethylcyclohexane]	0.225	0.2	0.1	55	70
C=C1C=C[C@@H](C)C(C)(C)[C@@H]1Cc1cc(OC)c(Br)cc1OC(C)=O (relative stereo) [N, trans-1-Methylidene-6-(2'-acetoxy-4'-bromo-5'-methoxyphenyl)methyl-4,5,5-trimethylcyclohex-2-ene]	1	0.325	0.195	90	70
C=C1CCCC(C)(C)C1Cc1cc(OC)c(Br)cc1O (stereo in doubt) [G, (3S)-1-Debromocyclocymopol monomethyl ether]				45	50
C=C1C(C)=CCC(C)(C)C1Cc1cc(OC)c(Br)cc1OC(C)=O (stereo in doubt) [Z, (3R)-5-Methyl-5,6-dehydro-1-debromocyclocymopol monomethyl ether, acetate]	0.66	0.21		83	81
C=C1CCCC(C)(C)C1Cc1cc(OC)c(Br)cc1O (stereo not drawn) [C, 1-Methylidene-2-(2'-hydroxy-4'-bromo-5'-methoxy-phenyl)methyl-3.3-dimethylcyclohexane]				55	70
C=C1C=C(C)CC(C)(C)C1Cc1ccc2nonc2c1 (stereo not drawn) [FF, 1-Methylidene-6-(benzofurazan-5'-yl)methyl-3,5,5-trimethylcyclohex-2-ene]	1.95	0.775		72	71
C=C1C=CCC(C)(C)C1Cc1cc(OC)c(Br)cc1O (stereo not drawn) [K, 1-Methylidene-6-(2'-hydroxy-4'-bromo-5'-methoxyphenyl)methyl-5,5-dimethylcyclohex-2-ene]				70	70

The next lines start with results.

IC50 [1] [µM]	IC50 [2] [µM]	Kd [3] [µM]	SMILES	Efficacy (% maximal response relative to RU-486), CV-1 cells [1] [%]	Efficacy (% maximal response relative to RU-486), T47D cells [2] [%]
5.14	7.19	0.028	C=C1C[C@H](C)CC(C)(C)[C@@H]1Cc1cc(OC)c(Br)cc1O (relative stereo) [BB, cis-1-Methylidene-2-(2'-hydroxy-4'-bromo-5'-methoxyphenyl)methyl-3,3,5-trimethyleyclohexane]	38	41
3	1.1	2.31	C=C1C[C@@](C)(CO)CC(C)(C)[C@@H]1Cc1cc(OC)c(Br)cc1O (relative stereo) [HH, trans-1-Methylidene-2-(2'-hydroxy-4'-bromo-5'-methoxyphenyl)methyl-3,3,5-trimethyl-5-(hydroxymethyl)cyclohexane]	85	81
0.03	3.6	0.625	C=C1C=C(C)[C@@H](CCO)C(C)(C)[C@@H]1Cc1cc(OC)c(Br)cc1O (relative stereo) [JJ, trans-1-Methylidene-4-(2-hydroxy)ethyl-6-(2'-hydroxy-4'-bromo-5'-methoxyphenyl)methyl-3,5,5-trimethylcyclohex-2-ene]	48	74
1.6	1.3	0.346	C=C1C=C[C@@H](C)C(C)(C)[C@@H]1Cc1cc(OC)c(Br)cc1O (relative stereo) [KK, trans-1-Methylidene-6-(2'-hydroxy-4'-bromo-5'-methoxyphenyl)methyl-4,5,5-trimethylcyclohex-2-ene]	75	76
1.6	0.5	0.269	C=C1CC[C@@H](C)C(C)(C)[C@@H]1Cc1cc(OC)c(Br)cc1O (relative stereo) [LL, trans-1-Methylidene-2-(2'-hydroxy-4'-bromo-5'-methoxyphenyl)methyl-3,3,4-trimethylcyclohexane]	91	74
3.3	1.6		C=C1C=C(C)CC(C)(C)C1C/C=C/c1cc(OC)c(Br)cc1O (stereo not drawn) [GG, 1-Methylidene-6-[trans-(2'-Hydroxy-4'-bromo-5'-methoxyphenyl)-1-propenyl]-3,5,5-trimethylcyclohex-2-ene]	61	65
3.57			C=C1C=C(C)CC(C)(C)C1Cc1cc(OC)c(Br)cc1O (stereo not drawn) [II, 1-Methylidene-6-(2'-hydroxy-4'-bromo-5'-methoxyphenyl)methyl-3,5,5-trimethylcyclohex-2-ene]		
